Columns and labels:
Format in all cases: biochemical
[1] = target: T1, Recombinant Human Anaplastic Lymphoma Kinase (Homo sapiens, UniProt Q9UM73); assay: ALK HTRF kinase assay; conditions: compound at 500 nM or 1 mM; 90 μM ATP
T1 construct: purchased Invitrogen, Carlsbad, Calif
How it was run: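 Readout was HTRF between a Eu-W1024 anti-phosphotyrosine antibody and streptavidin-APC bound to biotinylated peptide phosphorylated by recombinant human ALK. IC50 values came from a four-parameter logistic fit.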

[2] = target: T2, human JAK2 (a.a. 828-1132) (Homo sapiens, UniProt O60674); assay: In vitro JAK kinase assay (HTRF, phosphorylation of a biotinylated peptide), JAK2; conditions: method AA1 (30 μM ATP) or AA2 (1000 μM ATP), not stated per value
T2 construct: JAK2 (a.a. 828-1132); His tag (N); made in house; host or cells: insect cells (baculovirus)
T2 sequence (O60674 828-1132): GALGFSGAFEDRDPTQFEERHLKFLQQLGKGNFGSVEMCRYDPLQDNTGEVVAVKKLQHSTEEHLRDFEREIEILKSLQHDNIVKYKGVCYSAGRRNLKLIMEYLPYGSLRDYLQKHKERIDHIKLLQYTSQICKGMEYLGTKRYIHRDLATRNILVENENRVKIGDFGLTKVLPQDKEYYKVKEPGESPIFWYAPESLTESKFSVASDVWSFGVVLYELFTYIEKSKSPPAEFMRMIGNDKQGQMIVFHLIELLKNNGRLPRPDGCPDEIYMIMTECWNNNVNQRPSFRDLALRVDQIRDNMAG
How it was run: (§1)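 Phosphorylation of a biotinylated peptide by the JAK kinase domain, detected by HTRF with Eu-Py20 and SA-APC. ATP was 90 μM for JAK1, 30 μM for JAK2 and 3 μM for JAK3. Reactions ran 1 h at room temperature and were stopped with EDTA, followed by 40 min antibody binding.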

[3] = target: TYK2 (Homo sapiens, UniProt P29597); assay: TYK2 kinase inhibition (Table A1)
TYK2, sequence (P29597 whole entry): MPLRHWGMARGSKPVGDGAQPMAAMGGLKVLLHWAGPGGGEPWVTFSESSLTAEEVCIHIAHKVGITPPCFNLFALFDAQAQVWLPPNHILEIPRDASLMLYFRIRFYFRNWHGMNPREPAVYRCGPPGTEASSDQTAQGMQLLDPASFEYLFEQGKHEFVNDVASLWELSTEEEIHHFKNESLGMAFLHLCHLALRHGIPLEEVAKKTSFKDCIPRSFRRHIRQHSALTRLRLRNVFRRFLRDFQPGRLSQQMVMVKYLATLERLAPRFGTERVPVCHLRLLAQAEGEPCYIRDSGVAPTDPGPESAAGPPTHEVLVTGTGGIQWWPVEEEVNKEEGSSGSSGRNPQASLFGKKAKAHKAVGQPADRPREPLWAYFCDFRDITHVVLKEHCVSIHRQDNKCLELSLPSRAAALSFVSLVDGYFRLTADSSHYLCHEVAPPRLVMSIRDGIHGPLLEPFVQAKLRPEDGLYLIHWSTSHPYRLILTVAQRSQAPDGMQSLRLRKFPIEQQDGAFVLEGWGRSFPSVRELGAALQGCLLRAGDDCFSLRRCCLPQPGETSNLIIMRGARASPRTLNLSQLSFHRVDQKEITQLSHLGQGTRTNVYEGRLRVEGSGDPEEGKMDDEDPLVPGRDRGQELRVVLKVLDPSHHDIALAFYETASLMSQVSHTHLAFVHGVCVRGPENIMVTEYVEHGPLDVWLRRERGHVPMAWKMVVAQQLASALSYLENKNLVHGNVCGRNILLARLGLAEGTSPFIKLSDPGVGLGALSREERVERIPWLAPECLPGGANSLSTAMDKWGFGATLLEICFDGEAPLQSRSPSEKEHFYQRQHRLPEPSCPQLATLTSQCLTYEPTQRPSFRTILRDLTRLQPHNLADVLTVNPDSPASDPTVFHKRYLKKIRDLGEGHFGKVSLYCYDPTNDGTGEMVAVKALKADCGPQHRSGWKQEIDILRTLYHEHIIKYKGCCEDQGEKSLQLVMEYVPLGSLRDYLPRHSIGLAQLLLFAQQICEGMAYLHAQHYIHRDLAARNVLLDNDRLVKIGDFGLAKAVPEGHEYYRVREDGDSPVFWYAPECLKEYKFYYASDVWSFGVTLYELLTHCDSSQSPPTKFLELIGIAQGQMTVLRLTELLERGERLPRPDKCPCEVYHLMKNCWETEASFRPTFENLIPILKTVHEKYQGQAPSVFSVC

[4] = target: T3, human JAK3 (a.a. 781-1124) (Homo sapiens, UniProt P52333); assay: In vitro JAK kinase assay (HTRF, phosphorylation of a biotinylated peptide), JAK3; conditions: method AA1 (3 μM ATP) or AA2 (1000 μM ATP), not stated per value
T3 construct: JAK3 (a.a. 781-1124); His tag (N); made in house; host or cells: insect cells (baculovirus)
T3 sequence (P52333 781-1124): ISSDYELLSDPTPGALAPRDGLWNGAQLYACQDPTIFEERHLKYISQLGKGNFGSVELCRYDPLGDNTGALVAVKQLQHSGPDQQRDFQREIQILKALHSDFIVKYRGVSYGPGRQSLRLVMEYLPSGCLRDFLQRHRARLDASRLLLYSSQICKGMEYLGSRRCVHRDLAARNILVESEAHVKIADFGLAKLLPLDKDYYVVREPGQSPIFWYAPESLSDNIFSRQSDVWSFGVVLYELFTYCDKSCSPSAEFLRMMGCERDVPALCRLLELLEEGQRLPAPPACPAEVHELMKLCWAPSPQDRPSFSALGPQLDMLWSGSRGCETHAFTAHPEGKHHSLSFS
How it was run: as §1

[5] = target: T4, human JAK1 (a.a. 837-1142) (Homo sapiens, UniProt P23458); assay: In vitro JAK kinase assay (HTRF, phosphorylation of a biotinylated peptide), JAK1; conditions: method AA1 (90 μM ATP) or AA2 (1000 μM ATP), not stated per value; read-out: JAK1 IC50
T4 construct: human JAK1 (a.a. 837-1142); His tag (N); made in house; host or cells: insect cells (baculovirus)
T4 sequence (P23458 849-1154): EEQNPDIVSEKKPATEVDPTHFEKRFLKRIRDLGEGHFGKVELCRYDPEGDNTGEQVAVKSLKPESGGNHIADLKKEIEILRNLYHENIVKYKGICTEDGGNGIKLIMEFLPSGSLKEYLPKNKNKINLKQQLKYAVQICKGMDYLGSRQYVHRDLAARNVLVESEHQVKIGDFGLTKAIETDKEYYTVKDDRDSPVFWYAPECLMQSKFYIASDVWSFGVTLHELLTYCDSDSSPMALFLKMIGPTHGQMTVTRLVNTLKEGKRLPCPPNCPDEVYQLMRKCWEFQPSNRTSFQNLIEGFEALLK
How it was run: as §1

T1 sequence (Q9UM73 19-1620): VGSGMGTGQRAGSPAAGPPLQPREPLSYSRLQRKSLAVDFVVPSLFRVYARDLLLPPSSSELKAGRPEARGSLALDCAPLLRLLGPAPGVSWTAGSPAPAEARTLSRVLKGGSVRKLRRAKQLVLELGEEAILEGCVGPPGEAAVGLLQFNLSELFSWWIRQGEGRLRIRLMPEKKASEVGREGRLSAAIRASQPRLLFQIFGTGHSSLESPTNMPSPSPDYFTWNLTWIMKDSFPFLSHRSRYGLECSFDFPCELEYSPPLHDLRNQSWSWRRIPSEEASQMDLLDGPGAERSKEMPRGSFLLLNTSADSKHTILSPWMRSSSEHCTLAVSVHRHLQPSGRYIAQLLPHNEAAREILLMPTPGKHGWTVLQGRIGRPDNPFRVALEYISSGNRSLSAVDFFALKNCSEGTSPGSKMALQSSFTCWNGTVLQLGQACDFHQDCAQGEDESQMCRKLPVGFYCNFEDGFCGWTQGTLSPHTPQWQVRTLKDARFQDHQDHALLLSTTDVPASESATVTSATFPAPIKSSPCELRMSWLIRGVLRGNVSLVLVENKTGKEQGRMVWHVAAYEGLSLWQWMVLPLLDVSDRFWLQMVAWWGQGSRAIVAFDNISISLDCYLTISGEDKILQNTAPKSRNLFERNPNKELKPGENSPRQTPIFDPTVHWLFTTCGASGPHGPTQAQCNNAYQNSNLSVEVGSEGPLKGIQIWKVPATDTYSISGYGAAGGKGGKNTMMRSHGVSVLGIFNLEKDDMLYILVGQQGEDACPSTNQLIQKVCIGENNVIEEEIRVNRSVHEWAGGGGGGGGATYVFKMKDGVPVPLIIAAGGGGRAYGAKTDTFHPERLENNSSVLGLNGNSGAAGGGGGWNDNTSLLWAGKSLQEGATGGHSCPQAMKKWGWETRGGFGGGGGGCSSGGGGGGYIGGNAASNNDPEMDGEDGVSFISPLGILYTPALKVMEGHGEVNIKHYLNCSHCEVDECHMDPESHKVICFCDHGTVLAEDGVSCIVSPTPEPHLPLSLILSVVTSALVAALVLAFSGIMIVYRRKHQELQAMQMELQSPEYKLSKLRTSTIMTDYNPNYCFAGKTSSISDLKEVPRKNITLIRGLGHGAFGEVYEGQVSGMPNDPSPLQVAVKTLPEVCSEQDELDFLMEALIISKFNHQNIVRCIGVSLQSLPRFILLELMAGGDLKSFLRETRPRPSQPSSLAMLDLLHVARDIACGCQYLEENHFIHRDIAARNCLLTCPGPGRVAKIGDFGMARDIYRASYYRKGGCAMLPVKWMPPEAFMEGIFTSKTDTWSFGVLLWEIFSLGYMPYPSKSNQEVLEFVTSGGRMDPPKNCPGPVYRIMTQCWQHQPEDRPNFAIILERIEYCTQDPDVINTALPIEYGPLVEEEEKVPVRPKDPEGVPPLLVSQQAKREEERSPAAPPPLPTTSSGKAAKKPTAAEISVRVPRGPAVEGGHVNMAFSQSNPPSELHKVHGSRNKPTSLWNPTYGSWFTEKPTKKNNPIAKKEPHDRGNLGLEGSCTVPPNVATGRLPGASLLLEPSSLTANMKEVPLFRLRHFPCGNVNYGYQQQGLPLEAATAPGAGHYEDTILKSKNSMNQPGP

Structure (SMILES): Nc1nc(C(=O)N2CCC(CC(=O)Nc3ccc4cc3CCc3cncc(c3)Nc3ncc(Cl)c(n3)N4)CC2)cs1 [Example A217, 2-{1-[(2-Amino-1,3-thiazol-4-yl)carbonyl]piperidin-4-yl}-N-[6-chloro-2,4,8,18,22-pentaazatetracyclo[14.3.1.1(3,7).1(9,13)]docosa-1(20),3(22),4,6,9(21),10,12,16,18-nonaen-12-yl]acetamide tris(trifluoroacetate)]
- ALK % of inhibition at a concentration of 500 nM or 1 mM [1]: 23%
- IC50 [2]: 0.068 µM
- IC50 [3]: 0.055 µM
- IC50 [4]: > 0.2 µM
- IC50 [5]: 0.0042 µM

Structure (SMILES): CC(C)c1oncc1C(=O)N1CCC(CC(=O)Nc2ccc3cc2CCc2cncc(c2)Nc2ncc(Cl)c(n2)N3)CC1 [Example A218, N-[6-Chloro-2,4,8,18,22-pentaazatetracyclo[14.3.1.1(3,7).1(9,13)]docosa-1(20),3(22),4,6,9(21),10,12,16,18-nonaen-12-yl]-2-{1-[(5-isopropylisoxazol-4-yl)carbonyl]piperidin-4-yl}acetamide bis(trifluoroacetate)]
- ALK % of inhibition at a concentration of 500 nM or 1 mM [1]: 26%
- IC50 [2]: > 0.2 µM
- IC50 [3]: > 0.2 µM
- IC50 [4]: > 0.2 µM
- IC50 [5]: 0.074 µM

Structure (SMILES): O=C(CC1CCN(c2ccccc2)CC1)Nc1ccc2cc1CCc1cncc(c1)Nc1ncc(Cl)c(n1)N2 [Example A219, N-[6-Chloro-2,4,8,18,22-pentaazatetracyclo[14.3.1.1(3,7).1(9,13)]docosa-1(20),3(22),4,6,9(21),10,12,16,18-nonaen-12-yl]-2-(1-phenylpiperidin-4-yl)acetamide tris(trifluoroacetate)]
- ALK % of inhibition at a concentration of 500 nM or 1 mM [1]: 20%
- IC50 [2]: 0.09 µM
- IC50 [3]: 0.18 µM
- IC50 [4]: > 0.2 µM
- IC50 [5]: 0.012 µM

Structure (SMILES): N#Cc1ccccc1N1CCC(CC(=O)Nc2ccc3cc2CCc2cncc(c2)Nc2ncc(Cl)c(n2)N3)CC1 [Example A220, N-[6-Chloro-2,4,8,18,22-pentaazatetracyclo[14.3.1.1(3,7).1(9,13)]docosa-1(20),3(22),4,6,9(21),10,12,16,18-nonaen-12-yl]-2-[1-(2-cyanophenyl)piperidin-4-yl]acetamide tris(trifluoroacetate)]
- ALK % of inhibition at a concentration of 500 nM or 1 mM [1]: 18%
- IC50 [2]: 0.18 µM
- IC50 [3]: 0.19 µM
- IC50 [4]: > 0.2 µM
- IC50 [5]: 0.013 µM

Structure (SMILES): N#Cc1ccc(N2CCC(CC(=O)Nc3ccc4cc3CCc3cncc(c3)Nc3ncc(Cl)c(n3)N4)CC2)cc1 [Example A221, N-[6-Chloro-2,4,8,18,22-pentaazatetracyclo[14.3.1.1(3,7).1(9,13)]docosa-1(20),3(22),4,6,9(21),10,12,16,18-nonaen-12-yl]-2-[1-(4-cyanophenyl)piperidin-4-yl]acetamide tris(trifluoroacetate)]
- ALK % of inhibition at a concentration of 500 nM or 1 mM [1]: 22%
- IC50 [2]: > 0.2 µM
- IC50 [3]: > 0.2 µM
- IC50 [4]: > 0.2 µM
- IC50 [5]: 0.044 µM

Structure (SMILES): N#Cc1c(Cl)cccc1N1CCC(CC(=O)Nc2ccc3cc2CCc2cncc(c2)Nc2ncc(Cl)c(n2)N3)CC1 [Example A222, 2-[1-(3-Chloro-2-cyanophenyl)piperidin-4-yl]-N-[6-chloro-2,4,8,18,22-pentaazatetracyclo[14.3.1.1(3,7).1(9,13)]docosa-1(20),3(22),4,6,9(21),10,12,16,18-nonaen-12-yl]acetamide tris(trifluoroacetate)]
- ALK % of inhibition at a concentration of 500 nM or 1 mM [1]: 5.6%
- IC50 [2]: > 0.2 µM
- IC50 [3]: > 0.2 µM
- IC50 [4]: > 0.2 µM
- IC50 [5]: 0.0032 µM

Structure (SMILES): O=C(CC1CCN(S(=O)(=O)c2ccccc2Cl)CC1)Nc1ccc2cc1CCc1cncc(c1)Nc1ncc(Cl)c(n1)N2 [Example A223, N-[6-Chloro-2,4,8,18,22-pentaazatetracyclo[14.3.1.1(3,7).1(9,13)]docosa-1(20),3(22),4,6,9(21),10,12,16,18-nonaen-12-yl]-2-{1-[(2-chlorophenyl)sulfonyl]piperidin-4-yl}acetamide bis(trifluoroacetate)]
- ALK % of inhibition at a concentration of 500 nM or 1 mM [1]: 41%
- IC50 [2]: 0.09 µM
- IC50 [3]: > 0.4 µM
- IC50 [4]: > 0.4 µM
- IC50 [5]: 0.005 µM

Structure (SMILES): O=C(CC1CCN(S(=O)(=O)c2ccccc2C(F)(F)F)CC1)Nc1ccc2cc1CCc1cncc(c1)Nc1ncc(Cl)c(n1)N2 [Example A224, N-[6-Chloro-2,4,8,18,22-pentaazatetracyclo[14.3.1.1(3,7).1(9,13)]docosa-1(20),3(22),4,6,9(21),10,12,16,18-nonaen-12-yl]-2-(1-{[2-(trifluoromethyl)phenyl]sulfonyl}piperidin-4-yl)acetamide bis(trifluoroacetate)]
- ALK % of inhibition at a concentration of 500 nM or 1 mM [1]: 30%
- IC50 [2]: > 0.4 µM
- IC50 [3]: > 0.4 µM
- IC50 [4]: > 0.4 µM
- IC50 [5]: 0.014 µM

Structure (SMILES): Cc1ccccc1S(=O)(=O)N1CCC(CC(=O)Nc2ccc3cc2CCc2cncc(c2)Nc2ncc(Cl)c(n2)N3)CC1 [Example A225, N-[6-Chloro-2,4,8,18,22-pentaazatetracyclo[14.3.1.1(3,7).1(9,13)]docosa-1(20),3(22),4,6,9(21),10,12,16,18-nonaen-12-yl]-2-{1-[(2-methylphenyl)sulfonyl]piperidin-4-yl}acetamide bis(trifluoroacetate)]
- ALK % of inhibition at a concentration of 500 nM or 1 mM [1]: 36%
- IC50 [2]: 0.18 µM
- IC50 [3]: > 0.4 µM
- IC50 [4]: > 0.4 µM
- IC50 [5]: 0.0072 µM

Structure (SMILES): O=C(CC1CCN(S(=O)(=O)c2ccccc2F)CC1)Nc1ccc2cc1CCc1cncc(c1)Nc1ncc(Cl)c(n1)N2 [Example A226, N-[6-Chloro-2,4,8,18,22-pentaazatetracyclo[14.3.1.1(3,7).1(9,13)]docosa-1(20),3(22),4,6,9(21),10,12,16,18-nonaen-12-yl]-2-{1-[(2-fluorophenyl)sulfonyl]piperidin-4-yl}acetamide bis(trifluoroacetate)]
- ALK % of inhibition at a concentration of 500 nM or 1 mM [1]: 55%
- IC50 [2]: 0.1 µM
- IC50 [3]: > 0.4 µM
- IC50 [4]: > 0.4 µM
- IC50 [5]: 0.0053 µM

Structure (SMILES): O=C(CC1CCN(S(=O)(=O)c2ccccc2OC(F)(F)F)CC1)Nc1ccc2cc1CCc1cncc(c1)Nc1ncc(Cl)c(n1)N2 [Example A227, N-[6-Chloro-2,4,8,18,22-pentaazatetracyclo[14.3.1.1(3,7).1(9,13)]docosa-1(20),3(22),4,6,9(21),10,12,16,18-nonaen-12-yl]-2-(1-{[2-(trifluoromethoxy)phenyl]sulfonyl}piperidin-4-yl)acetamide bis(trifluoroacetate)]
- ALK % of inhibition at a concentration of 500 nM or 1 mM [1]: 22%
- IC50 [2]: > 0.4 µM
- IC50 [3]: > 0.4 µM
- IC50 [4]: > 0.4 µM
- IC50 [5]: 0.01 µM

Structure (SMILES): N#Cc1cccc(S(=O)(=O)N2CCC(CC(=O)Nc3ccc4cc3CCc3cncc(c3)Nc3ncc(Cl)c(n3)N4)CC2)c1 [Example A228, N-[6-Chloro-2,4,8,18,22-pentaazatetracyclo[14.3.1.1(3,7).1(9,13)]docosa-1(20),3(22),4,6,9(21),10,12,16,18-nonaen-12-yl]-2-{1-[(3-cyanophenyl)sulfonyl]piperidin-4-yl}acetamide bis(trifluoroacetate)]
- ALK % of inhibition at a concentration of 500 nM or 1 mM [1]: 62%
- IC50 [2]: 0.114 µM
- IC50 [3]: 0.109 µM
- IC50 [4]: > 0.4 µM
- IC50 [5]: 0.0069 µM

Structure (SMILES): Cn1cnc(S(=O)(=O)N2CCC(CC(=O)Nc3ccc4cc3CCc3cncc(c3)Nc3ncc(Cl)c(n3)N4)CC2)c1 [Example A229, N-[6-Chloro-2,4,8,18,22-pentaazatetracyclo[14.3.1.1(3,7).1(9,13)]docosa-1(20),3(22),4,6,9(21),10,12,16,18-nonaen-12-yl]-2-{1-[(1-methyl-1H-imidazol-4-yl)sulfonyl]piperidin-4-yl}acetamide bis(trifluoroacetate)]
- ALK % of inhibition at a concentration of 500 nM or 1 mM [1]: 55%
- IC50 [2]: 0.075 µM
- IC50 [3]: 0.12 µM
- IC50 [4]: > 0.4 µM
- IC50 [5]: 0.008 µM

Structure (SMILES): Cc1nc(S(=O)(=O)N2CCC(CC(=O)Nc3ccc4cc3CCc3cncc(c3)Nc3ncc(Cl)c(n3)N4)CC2)cn1C [Example A230, N-[6-Chloro-2,4,8,18,22-pentaazatetracyclo[14.3.1.1(3,7).1(9,13)]docosa-1(20),3(22),4,6,9(21),10,12,16,18-nonaen-12-yl]-2-{1-[(1,2-dimethyl-1H-imidazol-4-yl)sulfonyl]piperidin-4-yl}acetamide bis(trifluoroacetate)]
- ALK % of inhibition at a concentration of 500 nM or 1 mM [1]: 50%
- IC50 [2]: 0.13 µM
- IC50 [3]: 0.255 µM
- IC50 [4]: > 0.4 µM
- IC50 [5]: 0.015 µM

Structure (SMILES): Cc1noc(C)c1S(=O)(=O)N1CCC(CC(=O)Nc2ccc3cc2CCc2cncc(c2)Nc2ncc(Cl)c(n2)N3)CC1 [Example A231, N-[6-chloro-2,4,8,18,22-pentaazatetracyclo[14.3.1.1(3,7).1(9,13)]docosa-1(20),3(22),4,6,9(21),10,12,16,18-nonaen-12-yl]-2-{1-[(3,5-dimethylisoxazol-4-yl)sulfonyl]piperidin-4-yl}acetamide bis(trifluoroacetate)]
- ALK % of inhibition at a concentration of 500 nM or 1 mM [1]: 46%
- IC50 [2]: 0.085 µM
- IC50 [3]: 0.098 µM
- IC50 [4]: > 0.4 µM
- IC50 [5]: 0.0097 µM
